Measured values as given in PMC8620390, “New Multi-Targeted Antiproliferative Agents: Design and Synthesis of IC261-Based Oxindoles as Potential Tubulin, CK1 and EGFR Inhibitors” (Pharmaceuticals, 2021).
Where “and” joins values, the source holds several entries; their conditions need not be identical. Equal entries are not always repeated. Where two headings read alike, the source gives them in different places. Marks after values point to notes of the source that are not given here.

Experiments:
MCF-7 = test: Two-dose antiproliferative screening, SRB assay, MCF-7; type: cell-based; conditions: triplicates; for Growth Inhibition (%) MCF-7 1 μM Average: 72 h; for inhibition at 1 µM / inhibition at 10 µM: Homo sapiens, MCF7, 72 h; for inhibition at 1 µM: read-out: Growth Inhibition (%) MCF-7 1 μM Average; for inhibition at 10 µM: read-out: Growth Inhibition (%) MCF-7 10 μM Average
Description: (§1) MCF-7(breast adenocarcinoma), PC-3 (prostate cancer) and COLO-205 (colorectal cancer) were obtained from Nawah Scientific inc., (Mokatam, Cairo, Egypt). Cells were maintained in Dulbecco’s Modified Eagle’s media (DMEM media) supplemented with […] of streptomycin, 100 units/mL of penicillin and 10% of heat-inactivated fetal bovine serum in humidified, 5% (v/v) CO2 atmosphere at 37 °C.
(§2) Cell viability was assessed by the sulforhodamine B (SRB) assay. Aliquots of cell suspension (5 × 10^3 cells, 100 μL) were transferred into 96 well plates and incubated in complete media for 24 h. Cells were treated with another aliquot media (100 μL) containing compounds 3a–f, 4a–f, 6a–f, 7a–f, 9a–b at concentrations of 1 and 10 μM). After 72 h of drug exposure, cells were fixed by replacing media with trichloroacetic acid (TCA, 10%, 150 μL) and incubated at 4 °C for 1 h. The TCA solution was removed, and the cells were washed five times with distilled water. Aliquots of SRB solution (0.4%w/v, 70 μL) were added and incubated in a dark place at room temperature for 10 min. Plates were washed three times with 1% acetic acid and allowed to air dry overnight. Then, a solution of TRIS base and TRIS HCl (TRIS buffer, 10 mM, 150 μL) was added to dissolve protein bound SRB stain. The absorbance was measured at 540 nm using BMGLABTECH®–FLUOstar omega micro-plate reader (Ortenberg, Germany).

EGFR = biological target: T1, EGFR (Homo sapiens, UniProt P00533); test: EGFR kinase assay kit (Kinase-Glo MAX); type: biochemical; conditions: EGFR-TK kinase kit; read-out: EGFR Inhibition IC50 (converted)
T1 construct: enough purified recombinant EGFR enzyme, EGFR substrate, ATP, and kinase assay buffer; purchased Sigma Aldrich
T1 sequence (P00533 25-1210): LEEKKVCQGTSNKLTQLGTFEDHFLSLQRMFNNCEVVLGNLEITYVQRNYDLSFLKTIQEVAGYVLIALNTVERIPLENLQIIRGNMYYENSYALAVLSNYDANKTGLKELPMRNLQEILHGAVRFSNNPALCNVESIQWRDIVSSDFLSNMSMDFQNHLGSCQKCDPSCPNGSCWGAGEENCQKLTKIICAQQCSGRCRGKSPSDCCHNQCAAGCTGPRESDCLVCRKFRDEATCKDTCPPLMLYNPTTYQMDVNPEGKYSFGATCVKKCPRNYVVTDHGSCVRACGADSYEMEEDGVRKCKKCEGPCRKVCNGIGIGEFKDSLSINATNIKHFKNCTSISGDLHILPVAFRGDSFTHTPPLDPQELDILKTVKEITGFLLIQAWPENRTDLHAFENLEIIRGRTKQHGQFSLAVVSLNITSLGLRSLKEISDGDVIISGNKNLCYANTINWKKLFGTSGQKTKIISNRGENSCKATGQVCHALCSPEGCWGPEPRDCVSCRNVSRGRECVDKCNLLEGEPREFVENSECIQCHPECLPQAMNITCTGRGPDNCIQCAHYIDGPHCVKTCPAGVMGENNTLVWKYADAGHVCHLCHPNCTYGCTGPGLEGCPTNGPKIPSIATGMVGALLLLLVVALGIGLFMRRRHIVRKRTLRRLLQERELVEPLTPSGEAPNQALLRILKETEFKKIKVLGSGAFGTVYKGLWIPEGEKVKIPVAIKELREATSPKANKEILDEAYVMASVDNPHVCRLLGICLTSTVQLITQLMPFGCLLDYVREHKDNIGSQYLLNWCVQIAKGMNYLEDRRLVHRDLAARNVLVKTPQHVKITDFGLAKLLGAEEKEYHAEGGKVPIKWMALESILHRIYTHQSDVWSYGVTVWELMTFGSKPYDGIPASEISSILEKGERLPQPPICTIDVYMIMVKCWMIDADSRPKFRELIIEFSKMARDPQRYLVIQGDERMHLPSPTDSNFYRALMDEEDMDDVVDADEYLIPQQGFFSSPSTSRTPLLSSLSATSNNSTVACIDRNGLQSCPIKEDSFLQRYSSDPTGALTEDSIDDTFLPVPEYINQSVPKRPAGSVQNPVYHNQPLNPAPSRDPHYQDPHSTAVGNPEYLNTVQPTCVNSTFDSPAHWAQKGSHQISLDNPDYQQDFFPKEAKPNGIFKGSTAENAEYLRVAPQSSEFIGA
Description: The EGFR Kinase Assay Kit (Sigma Aldrich, St. Louis, […], USA) is designed to measure EGFR Kinase activity for screening and profiling applications using Kinase-Glo® MAX as a detection reagent. The EGFR Kinase Assay Kit (Sigma Aldrich, St. Louis, […], USA) comes in a convenient 96-well format, with enough purified recombinant EGFR enzyme, EGFR substrate, ATP, and kinase assay buffer for 100 enzyme reactions. The master mixture (25 μL per well) was prepared out of Kinase assay buffer (6 μL), ATP (500 μM, 1 μL), PTK substrate (50×, 1 μL) and water (17 μL) and added to each well. Inhibitor solution was made by dissolving 4b in a liquid labelled” inhibitor buffer”. An inhibitor solution (5 μL) was then added to each well, labelled as “Test Inhibitor”. For “Positive Control” and “Blank”, add 5 μL inhibitor buffer). EGFR was thawed on ice. Its tube was spun briefly to recover the full content of the tube. The enzyme was diluted with 1× Kinase assay buffer enzyme to 1 ng/μL. The reaction was initiated by adding 20 μL of diluted EGFR enzyme to the wells designated “Positive Control” and “Test Inhibitor Control”. The plate was incubated at 30 °C for 40 min. After the 40-min reaction, the Kinase-Glo Max (50 μL) reagent was added to each well. The plate was covered with aluminum foil, incubated at room temperature for 15 min and the luminescence was measured using the microplate reader.

PC-3 = test: Two-dose antiproliferative screening, SRB assay, PC-3; type: cell-based; conditions: triplicates; for Growth Inhibition (%) PC-3 1 μM Average: 72 h; for inhibition at 1 µM / inhibition at 10 µM: Homo sapiens, PC-3, 72 h; for inhibition at 1 µM: read-out: Growth Inhibition (%) PC-3 1 μM Average; for inhibition at 10 µM: read-out: Growth Inhibition (%) PC-3 10 μM Average
Description: as §1, §2

COLO-205 [1] = test: Two-dose antiproliferative screening, SRB assay, COLO-205; type: cell-based, human; conditions: triplicates; for Growth Inhibition (%) COLO-205 1 μM Average: 72 h; for inhibition at 1 µM / inhibition at 10 µM: Homo sapiens, COLO 205, 72 h; for inhibition at 1 µM: read-out: Growth Inhibition (%) COLO-205 1 μM Average; for inhibition at 10 µM: read-out: Growth Inhibition (%) COLO-205 10 μM Average
Description: as §1, §2

COLO-205 [2] = test: IC50 against COLO-205, SRB assay; type: cell-based; conditions: Homo sapiens, 0.001–100 μM
Description: as §2
The same procedures used to screen two-dose anticancer activities were applied in determining IC50 values against COLO-205 using SRB assay. Cells were maintained at Roswell Park Memorial Institute media (RPMI media). The test was performed using 0.001–100 μM of compounds 4a (IC261), 4b, 4d, 4e, 6e and 6f. IC50 values were calculated using the equation for Boltzman sigmoidal concentration–response curve using the nonlinear regression fitting models by GraphPad, Prism version 5 (GraphPad Software Inc., La Jolla, CA, USA).

CK1 = test: Casein Kinase 1 (CK1) 33P-ATP assay; type: biochemical
Description: The active CK1, kinase assay buffer, substrate solution and kinase dilution buffer were thawed on ice (^33P-ATP assay Cocktail). In a precooled microcentrifuge tube, 10 μL of kinase solution, 5 μL of substrate solution and 5 μL of cold water (4 °C) were added, then a blank control was set up. Each reaction was initiated by adding 5 μL of ^33P-ATP assay cocktail then incubated for 15 min in a water bath (30 °C), then 20 μL of the reaction mixture were spotted onto an individually precut strip of phosphocellulose P81 paper and allowed to air dry followed by washing using 1% H2SO4 with constant gentle stirring. A radioactive control was set up then 5 μL of γ-^33P-ATP assay cocktail was spotted on P81 paper, the sample was allowed to air dry for 2 min then the radioactivity count was recorded.

SMILES | Growth Inhibition (%) MCF-7 1 μM Average (MCF-7) | inhibition at 1 µM (MCF-7) | inhibition at 10 µM (MCF-7) | IC50 (EGFR) | Growth Inhibition (%) PC-3 1 μM Average (PC-3) | inhibition at 1 µM (PC-3) | inhibition at 10 µM (PC-3) | Growth Inhibition (%) COLO-205 1 μM Average (COLO-205 [1]) | inhibition at 1 µM (COLO-205 [1]) | inhibition at 10 µM (COLO-205 [1]) | IC50 (COLO-205 [2]) | CK 1 inhibition IC50 (as printed in μM in discussion) (CK1) | Casein Kinase I Inhibition IC50 (CK1) | Casein Kinase I Inhibition IC50 (CK1; IC261)
COc1cc(OC)c(/C=C2/C(=O)Nc3ccccc32)c(OC)c1 [Compound 4a, (E)-3-(2,4,6-trimethoxybenzylidene)indolin-2-one, reference compound] | 43.49 ^c % | 44% | 58.9% | 321 nM and 340 nM | 59.19% | 60% | 67.9% | 63.60% | 64% | 77.5% | 200 nM | 2.39 µM | 2.39 µg/mL | 2.39 (4a, IC261) μg/mL
COc1cc(OC)c(/C=C2/C(=O)Nc3cc(Cl)ccc32)c(OC)c1 [Compound 4b, (E)-6-chloro-3-(2,4,6-trimethoxybenzylidene)indolin-2-one] | 45.3% | 46% | 59.1% | 549 nM | 64.05% | 65% | 71.7% | 73.32% | 74% | 82.5% | 200 nM |  | 1.92 µg/mL | 
